PubChem BioAssay (NCI)
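Growth conditions: 96-well plates. Treatment: test compound, 48 hours, 5 concentrations. Analysis: linear interpolation between bracketing concentrations; unreached endpoints set to highest concentration. TGI: concentration producing complete growth inhibition.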

Experiments:
Experiment in all cases: NCI-60 cell line screen, 48 h
[1] = tested on: NCI/ADR-RES ovarian
[2] = tested on: SNB-75 CNS
[3] = tested on: UACC-257 melanoma
[4] = tested on: OVCAR-4 ovarian
[5] = tested on: ACHN renal
[6] = tested on: IGROV1 ovarian
[7] = tested on: OVCAR-3 ovarian
[8] = tested on: RXF 393 renal
[9] = tested on: MDA-N
[10] = tested on: MOLT-4 leukemia
[11] = tested on: HCT-15 colon
[12] = tested on: SW-620 colon
[13] = tested on: SF-539 CNS
[14] = tested on: CCRF-CEM leukemia
[15] = tested on: MCF7 breast
[16] = tested on: EKVX NSCLC
[17] = tested on: M14 melanoma
[18] = tested on: SNB-19 CNS
[19] = tested on: DU-145 prostate
[20] = tested on: K-562 leukemia
[21] = tested on: HT29 colon
[22] = tested on: HCT-116 colon
[23] = tested on: HCC-2998 colon
[24] = tested on: MDA-MB-435
[25] = tested on: HOP-92 NSCLC
[26] = tested on: SF-268 CNS
[27] = tested on: 786-0 renal
[28] = tested on: A498 renal
[29] = tested on: COLO 205 colon
[30] = tested on: HL-60(TB) leukemia
[31] = tested on: MDA-MB-231 breast
[32] = tested on: OVCAR-5 ovarian
[33] = tested on: SK-MEL-5 melanoma
[34] = tested on: NCI-H226 lung
[35] = tested on: SN12C renal
[36] = tested on: PC-3 prostate
[37] = tested on: UO-31 renal
[38] = tested on: LOX IMVI melanoma
[39] = tested on: U251 CNS
[40] = tested on: NCI-H460 lung
[41] = tested on: OVCAR-8 ovarian
[42] = tested on: MALME-3M melanoma
[43] = tested on: BT-549 breast
[44] = tested on: SR leukemia
[45] = tested on: SK-MEL-28 melanoma
[46] = tested on: SF-295 CNS
[47] = tested on: RPMI-8226 leukemia
[48] = tested on: A549 NSCLC
[49] = tested on: TK-10 renal
[50] = tested on: KM12 colon
[51] = tested on: HOP-62 NSCLC
[52] = tested on: SK-OV-3 ovarian
[53] = tested on: NCI-H23 lung
[54] = tested on: SK-MEL-2 melanoma
[55] = tested on: NCI-H522 lung
[56] = tested on: T-47D breast
[57] = tested on: CAKI-1 renal
[58] = tested on: UACC-62 melanoma
[59] = tested on: HS 578T breast

Work on `Cc1ccc(N=Nc2cc(=O)[nH]c(=O)[nH]2)cc1C` yielded a TGI [1] of over 100 µM, a TGI [2] of 15.3 µM and a TGI [3] of 28.7 µM. For the same compound, the TGI [4] was 31.8 µM, the TGI [5] was 24.4 µM and the TGI [6] was 26.9 µM. The TGI [7] was 4.19 µM, the TGI [8] was 24.9 µM and the TGI [9] was 24.7 µM. For the same compound, the TGI [10] was over 100 µM, the TGI [11] was 11.2 µM and the TGI [12] was 14.9 µM. It also gave a TGI [13] of 27.6 µM, a TGI [14] of over 100 µM and a TGI [15] of 29.4 µM. For the same compound, the TGI [16] was 34.7 µM, the TGI [17] was 41.1 µM and the TGI [18] was 35.2 µM. It also gave a TGI [19] of 27.9 µM, a TGI [20] of over 100 µM and a TGI [21] of 4.51 µM. For the same compound, the TGI [22] was 22.5 µM, the TGI [23] was 19.9 µM and the TGI [24] was 26.8 µM. It also gave a TGI [25] of 33.4 µM, a TGI [26] of 42.6 µM and a TGI [27] of 8.69 µM. It also gave a TGI [28] of 36.9 µM, a TGI [29] of 19.9 µM and a TGI [30] of 7.18 µM. The TGI [31] was 24.2 µM, the TGI [32] was 28.8 µM and the TGI [33] was 30.4 µM. It also gave a TGI [34] of 41.8 µM, a TGI [35] of 18.6 µM and a TGI [36] of 11.7 µM. For the same compound, the TGI [37] was 32.6 µM, the TGI [38] was 3.36 µM and the TGI [39] was 29.1 µM. It also gave a TGI [40] of 41.6 µM, a TGI [41] of 30.9 µM and a TGI [42] of 27.5 µM. For the same compound, the TGI [43] was 26.6 µM, the TGI [44] was over 100 µM and the TGI [45] was 34.3 µM. It also gave a TGI [46] of 28.7 µM, a TGI [47] of 14 µM and a TGI [48] of 34.7 µM. For the same compound, the TGI [49] was 34.3 µM, the TGI [50] was 24.5 µM and the TGI [51] was 43.1 µM.

`CC(=O)N/N=C1\NN(C(C)=O)C2(S1)C(=O)Nc1ccccc12` (stereo not drawn) gave a TGI [1] of over 100 µM, a TGI [2] of over 100 µM and a TGI [4] of over 100 µM. The TGI [5] was over 100 µM, the TGI [6] was over 100 µM and the TGI [7] was over 100 µM. The TGI [52] was over 100 µM, the TGI [9] was over 100 µM and the TGI [10] was over 100 µM. It also gave a TGI [11] of over 100 µM, a TGI [12] of over 100 µM and a TGI [53] of over 100 µM. For the same compound, the TGI [13] was over 100 µM, the TGI [14] was over 100 µM and the TGI [54] was over 100 µM. For the same compound, the TGI [15] was over 100 µM, the TGI [16] was over 100 µM and the TGI [17] was over 100 µM. For the same compound, the TGI [18] was over 100 µM, the TGI [19] was over 100 µM and the TGI [20] was over 100 µM. The TGI [21] was over 100 µM, the TGI [22] was over 100 µM and the TGI [23] was over 100 µM. For the same compound, the TGI [24] was over 100 µM, the TGI [26] was over 100 µM and the TGI [27] was over 100 µM. The TGI [30] was over 100 µM, the TGI [31] was over 100 µM and the TGI [55] was over 100 µM. The TGI [32] was over 100 µM, the TGI [33] was over 100 µM and the TGI [34] was over 100 µM. It also gave a TGI [35] of over 100 µM, a TGI [36] of over 100 µM and a TGI [37] of over 100 µM. For the same compound, the TGI [56] was over 100 µM, the TGI [57] was over 100 µM and the TGI [38] was over 100 µM. For the same compound, the TGI [39] was over 100 µM, the TGI [40] was over 100 µM and the TGI [41] was over 100 µM. It also gave a TGI [42] of over 100 µM, a TGI [44] of over 100 µM and a TGI [45] of over 100 µM. It also gave a TGI [47] of over 100 µM, a TGI [49] of over 100 µM and a TGI [58] of over 100 µM. For the same compound, the TGI [50] was over 100 µM and the TGI [51] was over 100 µM.

`Clc1cccc(Cl)c1C1ON=C(c2ccccc2)N1C12CC3CC(CC(C3)C1)C2` (stereo not drawn) was tested, and the TGI [1] was 84.4 µM, the TGI [2] was 18.3 µM and the TGI [3] was 15.1 µM. It also gave a TGI [4] of over 100 µM, a TGI [5] of over 100 µM and a TGI [6] of over 100 µM. It also gave a TGI [7] of 74.7 µM, a TGI [8] of over 100 µM and a TGI [52] of over 100 µM. It also gave a TGI [9] of over 100 µM, a TGI [10] of 46.3 µM and a TGI [11] of over 100 µM. It also gave a TGI [53] of over 100 µM, a TGI [13] of over 100 µM and a TGI [14] of 56.5 µM. For the same compound, the TGI [54] was 71 µM, the TGI [15] was over 100 µM and the TGI [16] was over 100 µM. The TGI [17] was over 100 µM, the TGI [18] was over 100 µM and the TGI [19] was over 100 µM. The TGI [20] was 44.7 µM, the TGI [21] was over 100 µM and the TGI [22] was 59.9 µM. The TGI [23] was over 100 µM, the TGI [24] was over 100 µM and the TGI [25] was 75.3 µM. The TGI [26] was over 100 µM, the TGI [27] was over 100 µM and the TGI [28] was over 100 µM. The TGI [29] was 30.5 µM, the TGI [30] was 8.72 µM and the TGI [31] was over 100 µM. The TGI [59] was 87.2 µM, the TGI [55] was over 100 µM and the TGI [32] was over 100 µM. For the same compound, the TGI [33] was 12.1 µM, the TGI [34] was over 100 µM and the TGI [35] was over 100 µM. The TGI [36] was 29.9 µM, the TGI [37] was over 100 µM and the TGI [56] was over 100 µM. For the same compound, the TGI [57] was over 100 µM, the TGI [38] was 63.7 µM and the TGI [39] was over 100 µM. The TGI [40] was over 100 µM, the TGI [41] was over 100 µM and the TGI [42] was 47 µM. The TGI [44] was over 100 µM, the TGI [45] was over 100 µM and the TGI [46] was over 100 µM. It also gave a TGI [47] of 47.8 µM, a TGI [48] of over 100 µM and a TGI [49] of over 100 µM. For the same compound, the TGI [58] was over 100 µM, the TGI [50] was 30.8 µM and the TGI [51] was over 100 µM.
